Data: paper PMC6979384, “Characterization of the plant homeodomain (PHD) reader family for their histone tail interactions” (Epigenetics & Chromatin, 2020)

Columns and labels:
DIDO1 = assay: dCypher AlphaScreen Phase B (full peptide screen); type: binding, human; conditions: reader 0.1 nM, 100 nM peptide, 23 °C, n = 2
Description: (§1) X-axes are log(protein concentration (M)) at constant peptide concentration (100 nM); Y-axes are AlphaScreen counts, representing relative strength of binding (n = 2; error bars are S.D.). i Heat map represents relative binding to H3 N-terminal peptides (left) by PHD-containing GST-tagged proteins (top) using the dCypher AlphaScreen platform. Protein concentrations can be found in Additional file 5: Table S4. Binding strength is indicated by color gradient from green to yellow (stronger to weaker). […] Alpha counts (n = 2) were normalized individually for each protein to the highest signal for each respective assay. For full dCypher peptide screen data, see Additional file 4: Table S3
(§2) Once the optimal protein concentration ranges for each of the eight readers were determined, we conducted the full dCypher peptide screen (293 histone peptides) (Fig. 3i; Additional file 4: Table S3).
(§3) The dCypher peptide screen assay was performed as previously described. Briefly, 5 μL of GST-tagged reader domains (optimal protein concentration for library screening determined by initial binding curves to candidate peptides) were incubated with 5 μL of 400 nM (100 nM Final) biotinylated histone peptides (EpiCypher) for 30 min at 23 °C in 1× AlphaLISA Epigenetics buffer + epigenetics buffer supplement (PerkinElmer, AL1008) in a 384-well plate. A 10 μL mix of 5 µg/mL (2.5 μg/mL final) glutathione Acceptor beads (PerkinElmer, AL109M) and 10 μg/mL (5 μg/mL final) streptavidin Donor beads (PerkinElmer, 6760002) was prepared in 1× [Epigenetics buffer + supplement] and added to each well. Plates were incubated at 23 °C in subdued lighting for 60 min and AlphaLISA signal measured on a PerkinElmer 2104 EnVision (680 nm laser excitation, 570 nm emission filter ± 50 nm bandwidth).
(§4) Supplementary file 13072_2020_328_MOESM4_ESM.xlsx: Additional file 4: Table S3. dCypher Results. Excel Tab Peptide Phase A is a compiled set of binding data: chromatin reader titration vs. several peptide targets. Data is presented as raw Alpha counts in duplicates at each concentration tested. Excel Tab Peptide Phase B is a compiled set of binding data: chromatin reader at optimized concentrations vs. entire 293 peptide library. Data is presented as the average and standard deviation of duplicates. […] Key: red = strong binding; blue = weak/no binding.

MLL5 = assay: dCypher AlphaScreen Phase B (full peptide screen); type: binding, human; conditions: reader 0.02 nM, 100 nM peptide, 23 °C, n = 2
Description: as §1, §2, §3, §4

KDM7A = assay: dCypher AlphaScreen Phase B (full peptide screen); type: binding, human; conditions: reader 0.15 nM, 100 nM peptide, 23 °C, n = 2
Description: as §1, §2, §3, §4

KDM5A (PHD3) = assay: PHD finger domain microarray; type: binding, human
From the text: (§5) To define the histone binding preferences of the PHD finger proteome, we expressed and purified 123 annotated human PHD-containing domains as GST-tagged recombinant fusions from E. coli. The recombinant proteins consisted of either PHD fingers in isolation, or as tandem domains if a given PHD finger was located adjacent to another reader domain (e.g., one or more PHD fingers, Tudor, chromo and/or bromodomains) (Additional file 1: Table S1). These GST fusions were printed in duplicate on nitrocellulose-coated microarray slides and probed with biotinylated peptides that represented the N-termini of H3, H4, H2A or H2B (Fig. 1a and Additional file 2: Figure S1). As the majority of PHD readers thus far characterized are H3K4me0/3 readers, we included additional peptides (H3K4 as either mono-, di-, or trimethylated) to further determine any H3K4 methyl preference (Additional file 2: Figure S2 and Fig. 1b). As a control, we also probed these microarrays with an α-Tubulin peptide (a.a. 30–50) that would not be predicted to interact with PHD fingers (Additional file 2: Figure S1). […] We also cannot exclude the possibility that some PHD fingers might not be functionally active on the microarrays (perhaps due to misfolding or the lack of an important adjacent region).
(§6) The protein domain microarray was designed to include 123 GST-tagged PHD-domain containing recombinant proteins. Protein domain microarray development and probing was as previously. Briefly, recombinant proteins were synthesized and cloned into pGEX-4T-1 vector by Biomatik Corporation. These GST-PHD readers were subsequently expressed, purified, and spotted in duplicate onto nitrocellulose-coated glass slides (Oncyte Avid slides, Grace Bio-Labs) using a pin arrayer (Aushon 2470, Aushon). For probing, microarray slides were blocked with 3% milk, 3% bovine serum albumin, 0.1% Tween 20 in PBS. Biotinylated peptides were pre-labeled with streptavidin-Cy3 fluorophore (GE Healthcare) and incubated with the blocked array slides. Slides were then washed with PBST and allowed to air dry. Fluorescent interactions were visualized using a GenePix 4200A Microarray Scanner (Molecular Devices).

KDM5B (PHD3) = conditions: cited from earlier work
From the text: While findings between the domain microarrays and peptide microarrays largely agreed, there were some interesting differences. […] It should be noted that the comparison made here is between the H3K4me3 + K9ac + K18ac and the H3K4me0 + K9ac + K18ac peptides. Due to the limited binding, if any, ...

AIRE (PP) = assay: PHD finger domain microarray; type: binding, human
From the text: as §5, §6

TRIM66 (PB) = assay: PHD finger domain microarray; type: binding, human
From the text: as §5, §6

KDM5B (PHD1) = assay: PHD finger domain microarray; type: binding, human
From the text: as §5, §6

KDM5A (PHD1) = assay: PHD finger domain microarray; type: binding, human
From the text: as §5, §6

PHF21A = assay: PHD finger domain microarray; type: binding, human
From the text: as §5, §6

H3K4me0 readers = assay: dCypher AlphaScreen Phase B (full peptide screen), H3K4me0 readers together; type: binding, human; conditions: 100 nM peptide, 23 °C, n = 2
Description: Fig. 3 dCypher histone peptide-binding assays define the PTM recognition preference of PHD proteins with high sensitivity. a–h Binding curves to determine optimal reader protein concentration for full peptide library screening on the dCypher® AlphaScreen® platform (see “Methods”). X-axes are log(protein concentration (M)) at constant peptide concentration (100 nM); Y-axes are AlphaScreen counts, representing relative strength of binding (n = 2; error bars are S.D.). i Heat map represents relative binding to H3 N-terminal peptides (left) by PHD-containing GST-tagged proteins (top) using the dCypher AlphaScreen platform. Protein concentrations can be found in Additional file 5: Table S4. […]
as §2
The dCypher peptide screen assay was performed as previously described. Briefly, 5 μL of GST-tagged reader domains (optimal protein concentration for library screening determined by initial binding curves to candidate peptides) were incubated with 5 μL of 400 nM (100 nM Final) biotinylated histone peptides (EpiCypher) for 30 min at 23 °C in 1× AlphaLISA Epigenetics buffer + epigenetics buffer supplement (PerkinElmer, AL1008) in a 384-well plate. […]

DPF2 (PPC2W2) = assay: dCypher AlphaScreen Phase B (full peptide screen); type: binding, human; conditions: reader 0.1 nM, 100 nM peptide, 23 °C, n = 2
Description: as §1, §2, §3, §4

H3K4me1: H3 1-20 [Peptide H3K4me1]
binding (DIDO1): also identified interaction of these domains with the H3K4me1 peptide
binding (MLL5): also identified interaction of these domains with the H3K4me1 peptide

H3K4me3: H3 1-20 [Peptide H3K4me3]
binding (KDM7A): reader of H3K4me3
binding preference (KDM5A (PHD3)): consistent with their current classification as H3K4me3 binders
reported binding (KDM5B (PHD3)): reported to bind H3K4me3

H3 (1-20): unmodified H3 N-terminal peptide (1–20)
binding preference (AIRE (PP)): preference for the unmethylated H3K4 state
binding preference (TRIM66 (PB); listed as unmethylated H3K4): preference for the unmethylated H3K4 state
binding preference (TRIM66 (PB); listed as unmodified H3 tail): readers of the unmodified H3 tail
binding preference (KDM5B (PHD1)): preference for the unmethylated H3K4 state
binding preference (KDM5A (PHD1)): preference for the unmethylated H3K4 state
binding preference (PHF21A): preference for the unmethylated H3K4 state

H3S10p: H3 1-20 [Peptide H3S10p]
loss of binding on S10 phosphorylation (H3K4me0 readers): this phenomenon is also observed

H3K9me3: H3 1-20 [Peptide H3K9me3]
binding (DPF2 (PPC2W2)): ability to bind to the peptides containing H3K9me3
